# Assay results reported in EP0394122A2, “Use of tetracyclines to manufacture a medicament for the treatment and prevention of AIDS” (priority 1989, dated 1990).
# Legend:
# [1] = system: lignée lymphoblastoïde CEM clone 13; assay: Cytotoxicity on non-infected CEM clone 13 cells (MTT viability); assay type: cell-based, humaines; conditions: day 7
# Description: (§1) Dans une microplaque de 96 puits on dépose 25 µl/puits d'une solution de produit à tester ou de tampon phosphate isotonique (TPI) dans le cas des contrôles. Les produits sont étudiés à différentes concentrations (souvent 8), à raison de 4 puits par concentration. On ajoute alors 125 µl d'une suspension de cellules CEM dans le milieu RPMI contenant 10 % de sérum de veau foetal, 40 U/ml de pénicilline, 40 µg/ml de streptomycine et 5 µg/ml de polybrène (3500 cellules par puits) et les microplaques sont incubées une heure à 37°C, sous une atmosphère contenant 5 % de gaz carbonique. Pour chaque concentration, l'essai est partagé en 2 parties : une partie sur cellules infectées, pour la détermination de l'activité antivirale et l'autre partie sur cellules non infectées, pour déterminer la cytotoxicité des produits. On infecte alors la première série avec HIV (100 µl par puit d'une suspension de virus LAV-1-BRU contenant 200-300 TCID50) tandis que l'autre série reçoit 100 µl de milieu RPMI tel que défini précédemment. Au bout de 7 jours d'incubation, 175 µl de surnageant sont prélevés et rejetés. La viabilité cellulaire est déterminée selon une modification de la technique décrite par R. Pauwels et coll., J. Virol.
# (§2) Les puits, contenant encore les cellules (infectées ou non infectées), reçoivent 10 µl d'une solution de MTT (méthylthiazoletétrazolium) à 5 mg/ml dans du tampon phosphate isotonique. Pendant une période d'incubation de 4 heures, le MTT est converti en un sel de formazan (bleu) à l'intérieur des cellules vivantes et proportionnellement à leur nombre, alors que rien n'apparaît dans les puits ne contenant plus que des cellules mortes. On ajoute alors 120 µl d'isopropanol (contenant 0,04 mole/l d'acide chlorhydrique) et les microplaques sont agitées jusqu'à la solubilisation du bleu de formazan. L'absorption à 540 nm est lue avec un lecteur automatique de réactions ELISA en microplaques.
# (§3) Pour les essais de plus longue durée, on procède comme décrit précédemment jusqu'au jour 7. A ce moment, 100 µl de cellules sont prélevés pour mesurer la proportion de cellules vivantes et le restant est remis en culture avec du milieu frais contenant les produits aux mêmes concentrations. Cette opération est répétée tous les 4 jours.
# virus HIV (LAV-1-BRU) = assay: Protection against the cytopathogenic effect of HIV in infected CEM clone 13 cells (MTT viability); assay type: cell-based; conditions: day 7
# Description: as §1, with “Le test est réalisé sur la lignée lymphoblastoïde CEM clone 13. Dans” for “Dans”, “Virol. Meth., 20, 309-321 (1988).” for “Virol.”
# as §2, §3
Compound,"Cellules non infectées Densité optique ([1]; 0,01 µg/ml)","Cellules non infectées Densité optique ([1]; 0,04 µg/ml)","Cellules non infectées Densité optique ([1]; 0,12 µg/ml)","Cellules non infectées Densité optique ([1]; 0,37 µg/ml)",Cellules non infectées Densité optique ([1]; 10 µg/ml),Cellules non infectées Densité optique ([1]; 30 µg/ml),"Cellules non infectées Densité optique ([1]; 1,11 µg/ml)","Cellules non infectées Densité optique ([1]; 3,33 µg/ml)","Cellules infectées Densité optique (virus HIV (LAV-1-BRU); 0,01 µg/ml)","Cellules infectées Densité optique (virus HIV (LAV-1-BRU); 0,04 µg/ml)","Cellules infectées Densité optique (virus HIV (LAV-1-BRU); 0,12 µg/ml)","Cellules infectées Densité optique (virus HIV (LAV-1-BRU); 0,37 µg/ml)",Cellules infectées Densité optique (virus HIV (LAV-1-BRU); 10 µg/ml),Cellules infectées Densité optique (virus HIV (LAV-1-BRU); 30 µg/ml),"Cellules infectées Densité optique (virus HIV (LAV-1-BRU); 1,11 µg/ml)","Cellules infectées Densité optique (virus HIV (LAV-1-BRU); 3,33 µg/ml)",also measured
lymecycline [Exemple 4],"1,75","1,80","1,90","1,75","1,85","1,05","1,80","1,85","0,75","1,25","1,21","1,20","1,55","1,05","1,28","1,40",–
"CN(C)C1C(=O)C(C(N)=O)=C(O)C2(O)C(=O)C3=C(O)c4c(O)cccc4C(C)(O)C3CC12 (stereo not drawn) [Exemple 1, tétracycline]",–,–,–,–,–,–,–,–,–,–,–,–,–,–,–,–,"Cellules non infectées Densité optique ([1]; 0,03 µg/ml): 1,025; Cellules non infectées Densité optique ([1]; 0,08 µg/ml): 1,080; Cellules non infectées Densité optique ([1]; 0,25 µg/ml): 1,050; Cellules non infectées Densité optique ([1]; 0,74 µg/ml): 1,100; Cellules non infectées Densité optique ([1]; 20 µg/ml): 0,460; Cellules non infectées Densité optique ([1]; 60 µg/ml): 0,1; Cellules non infectées Densité optique ([1]; 2,22 µg/ml): 1,040; Cellules non infectées Densité optique ([1]; 6,67 µg/ml): 0,900; Cellules infectées Densité optique (virus HIV (LAV-1-BRU); 0,03 µg/ml): 0,350; Cellules infectées Densité optique (virus HIV (LAV-1-BRU); 0,08 µg/ml): 0,350; Cellules infectées Densité optique (virus HIV (LAV-1-BRU); 0,25 µg/ml): 0,340; Cellules infectées Densité optique (virus HIV (LAV-1-BRU); 0,74 µg/ml): 0,420; Cellules infectées Densité optique (virus HIV (LAV-1-BRU); 20 µg/ml): 0,400; Cellules infectées Densité optique (virus HIV (LAV-1-BRU); 60 µg/ml): 0,1; Cellules infectées Densité optique (virus HIV (LAV-1-BRU); 2,22 µg/ml): 0,510; Cellules infectées Densité optique (virus HIV (LAV-1-BRU); 6,67 µg/ml): 0,620"
"C=C1c2cccc(O)c2C(O)=C2C(=O)C3(O)C(O)=C(C(N)=O)C(=O)C(N(C)C)C3C(O)C12 (stereo not drawn) [Exemple 3, métacycline]","1,100","1,380","1,300","1,230","0,960","0,1","1,180","1,320","0,570","0,640","0,680","0,730","0,770","0,1","0,780","1,060",–
